In general, IC50 refers to the midpoint of a concentration-inhibition curve. As a reminder, the EC50 is the concentration that produces a half-maximal response.

“And” between values parts separate entries of the source, which are not always exact repeats. Equal entries are not always repeated. Where two headings read alike, the source gives them in different places.

The subject of data set [1] is MeV. Nature of the data set: Synergy analysis ERDRP-0519 and GHP-88309, antiviral. Conditions: ERDRP519 0.00 µM. The data set is classed as cell-based.
Data set [2] concerns MeV. Nature of the data set: Cell-based anti-MeV assays of earlier work.
In data set [3] the test system is MeV. Conditions: cited from earlier work; for IC50: Figure 7A source data; for EC50: experimental activity, read-out: EC50.
The conditions of data set [4]: cited from earlier work.
[5] abbreviates: −log10(EC50) of literature EC50.

With `NC(=O)c1c(F)cccc1-c1cccc2cnccc12` [GHP88309], the “S4 A antiviral matrix, normalized value” with MeV [1] (GHP88309 0.03 µM) was 100.00; with MeV [1] (GHP88309 0.08 µM) it was 78.32 and 88.03 and 100.19 and 97.70; in the data set with MeV [1] (GHP88309 0.74 µM), 50.86 and 41.77 and 80.59 and 41.41; in the data set with MeV [1] (GHP88309 2.22 µM), 14.61 and 17.48 and 22.13 and 11.92. In addition, the “S4 B cytotoxicity matrix, normalized value” is 100.00 with Vero-hSLAM cells; 99.90 with Vero-hSLAM cells (ERDRP519 0.00 µM, GHP88309 0.27 µM); 99.44 and 91.52 in the data set with Vero-hSLAM cells (ERDRP519 0.00 µM, GHP88309 0.82 µM); 97.69 in the data set on Vero-hSLAM cells (ERDRP519 0.00 µM, GHP88309 7.41 µM); 98.85 and 98.57 with Vero-hSLAM cells (ERDRP519 0.00 µM, GHP88309 66.67 µM); 92.50 and 87.59 and 94.52 in the data set with Vero-hSLAM cells (ERDRP519 0.00 µM, GHP88309 200.00 µM).
For `Cn1cc(C(F)(F)F)cc1C(=O)Nc1ccc(S(=O)(=O)N2CCCCCC2)cc1` [15f, S(=O)(=O)(N1CCCCCC1)c1ccc(NC(=O)c2n(C)cc(C(F)(F)F)c2)cc1], the IC50 with MeV [2] (Figure 7A source data), with MeV [2] (setting [5]) and in the data set on MeV [3] was 5 nM each time. Also, the EC50 in the data set on MeV [3] is 5 nM. Also, the CC50 in data set [4] is greater than 300000 nM.
For `CCn1nc(C(F)(F)F)cc1C(=O)Nc1ccc(S(=O)(=O)N2CCCCC2C)cc1` (stereo not drawn) [9a, S(=O)(=O)(N1C(C)CCCC1)c1ccc(NC(=O)c2n(CC)nc(C(F)(F)F)c2)cc1], the IC50 with MeV [2] (Figure 7A source data) was 55 nM; with MeV [2] (setting [5]), 55.1 nM; with MeV [3], 55 nM. The EC50 in the data set with MeV [3] is 55 nM. Further, in data set [4], the CC50 was 30000 nM.
As to `CCOC(=O)CCC1CCCCN1S(=O)(=O)c1ccc(NC(=O)c2cc(C(F)(F)F)nn2C)cc1` (stereo not drawn) [2i, S(=O)(=O)(N1C(CCC(=O)OCC)CCCC1)c1ccc(NC(=O)c2n(C)nc(C(F)(F)F)c2)cc1], the results for the IC50 with MeV [2] (Figure 7A source data), in the data set on MeV [2] (setting [5]) and with MeV [3] were 6700 nM, 6710 nM and 6690 nM, respectively. Also, in the data set on MeV [3], the concentration for a half-maximal effect (EC50) is 6600 nM. Besides, the CC50 in data set [4] is greater than 100000 nM.
Regarding `Cn1nc(C(F)(F)F)cc1C(=O)Nc1ccc(S(=O)(=O)N2CCCC2)cc1` [compound 16677, S(=O)(=O)(N1CCCC1)c1ccc(NC(=O)c2n(C)nc(C(F)(F)F)c2)cc1], the IC50 with MeV [2] (Figure 7A source data) is 240 nM; in the data set on MeV [2] (setting [5]), 240 nM; in the data set with MeV [3] it was 239 nM. Further, in the data set with MeV [3], the EC50 was 230 nM. The CC50 in data set [4] was greater than 300000 nM.

The values are drawn from publication PMC7935272 (PLoS Pathogens, 2021).
